Test results reported in US9012611B2, “Use of 3,8,12,14, 17,20-oxo-substituted pregnene glycosides in the preparation of healthcare products, food additives and pharmaceuticals for the inhibition of appetite” (Institute of Materia Medica, Chinese Academy of Sciences, priority 2010, dated 2015).

Tests used:
female Wistar rat = assay: Animal test in vivo: average food consumption (appetite inhibition); details: for Average food consumptions: positive control 15 mg/kg; for average food consumptions compared with the blank control group (in words): during the administration of the drugs, pure glycosides 50 mg/kg
Experimental: (§1) 6-7 weeks-old female Wistar rat (purchased from Shanghai Laboratory Animal Center of Chinese Academy of Sciences)(weight: 110-150 g) was raised alone in suspended metal cage. After the experimental rat was obtained, it was checked to make sure whether they were abnormal or had obvious disease signs. The rat can freely obtain the drinking-water and feed for rodent (RM1(E)AQC). The feeding cage was controlled to receive 12 h illumination (from 07:00 to 19:00) and to be in a dark environment for 12 h, and the room temperature and relative humidity were controlled to be 21±3° C. and 55±15% respectively and not to deviate the upper and lower limit. The rats were randomly divided into groups depending on the body weight according to random number table to make the average weight in each group are approximately equal. Before the test, the rats were pre-trained suitably for one week (from −7th day to −1st day) during which the consumptions of feed and drinking water were recorded.
(§2) Each group of drug to be tested, positive control group, and blank control group consisted of 5 rats, respectively. The tested drug and positive control drug were mixed with wheaten starch before the administration and formulated to suspension with required doses according to 10 mL/kg of administration volume. The positive control drug was sibutramine hydrochloride and the administration dosage was 15 mg/kg body weight. In the blank control group, only equal amount of starch was used to formulate suspension for administration by […] in a same volume. The administration time is the 1st day, 2nd day and 3rd day. The body weight of the rat, the consumption of the feed (the weight of the feeding hopper) and consumption of the drinking water (bottle weight) were recorded from the −7th day to the 7th day.

[1] = Animal test in vivo: average body weight; parameters: species or system rat; details: for Average body weight: positive control 15 mg/kg; for body weight compared with the blank control group (in words): during the administration of the drugs, pure glycosides 50 mg/kg
Experimental: as §1, §2

CO[C@H]1C[C@H](O[C@H]2[C@@H](OC)C[C@H](O[C@H]3CC[C@@]4(C)C(=CC[C@]5(O)[C@@H]4C[C@@H](OC(=O)/C=C/c4ccccc4)[C@@]4(C)[C@]5(O)CC[C@@]4(O)C(C)=O)C3)O[C@@H]2C)O[C@@H](C)[C@H]1O[C@H]1C[C@H](OC)[C@H](O[C@H]2C[C@@H](OC)[C@@H](O[C@@H]3O[C@H](CO)[C@@H](O)[C@H](O)[C@H]3O)[C@H](C)O2)[C@@H](C)O1 [Cynauricuoside A, cynauricuoside A]
Average food consumptions (female Wistar rat; 1st day (administration day), Table 1, crude extract 300 mg/kg, others 50 mg/kg): 9.2 g | Average food consumptions (female Wistar rat; 2nd day (administration day), Table 1, crude extract 300 mg/kg, others 50 mg/kg): 10.8 g | Average food consumptions (female Wistar rat; 3rd day (administration day), Table 1, crude extract 300 mg/kg, others 50 mg/kg): 9.2 g | Average food consumptions (female Wistar rat; 4th day (after administration on days 1-3), Table 1, crude extract 300 mg/kg, others 50 mg/kg): 15.2 g | Average food consumptions (female Wistar rat; 5th day (after administration on days 1-3), Table 1, crude extract 300 mg/kg, others 50 mg/kg): 13.6 g | Average food consumptions (female Wistar rat; 6th day (after administration on days 1-3), Table 1, crude extract 300 mg/kg, others 50 mg/kg): 13.2 g | Average food consumptions (female Wistar rat; 7th day (after administration on days 1-3), Table 1, crude extract 300 mg/kg, others 50 mg/kg): 13.6 g | average food consumptions compared with the blank control group (in words) (female Wistar rat; crude extract 300 mg/kg): greatly less than those in the blank control group | Average food consumptions (female Wistar rat; −1st day (before administration), Table 1, crude extract 300 mg/kg, others 50 mg/kg): 12.4 g | Average food consumptions (female Wistar rat; −2nd day (before administration), Table 1, crude extract 300 mg/kg, others 50 mg/kg): 14.4 g | Average food consumptions (female Wistar rat; −3rd day (before administration), Table 1, crude extract 300 mg/kg, others 50 mg/kg): 13.6 g | Average food consumptions (female Wistar rat; −4th day (before administration), Table 1, crude extract 300 mg/kg, others 50 mg/kg): 14 g | Average food consumptions (female Wistar rat; −5th day (before administration), Table 1, crude extract 300 mg/kg, others 50 mg/kg): 13.6 g | Average food consumptions (female Wistar rat; −6th day (before administration), Table 1, crude extract 300 mg/kg, others 50 mg/kg): 11.2 g | Average food consumptions (female Wistar rat; −7th day (before administration), Table 1, crude extract 300 mg/kg, others 50 mg/kg): 14 g | Average body weight ([1]; 1st day (administration day), Table 3, crude extract 300 mg/kg, others 50 mg/kg): 158.8 g | Average body weight ([1]; 2nd day (administration day), Table 3, crude extract 300 mg/kg, others 50 mg/kg): 156.4 g | Average body weight ([1]; 3rd day (administration day), Table 3, crude extract 300 mg/kg, others 50 mg/kg): 153.6 g | Average body weight ([1]; 4th day (after administration on days 1-3), Table 3, crude extract 300 mg/kg, others 50 mg/kg): 156.8 g | Average body weight ([1]; 5th day (after administration on days 1-3), Table 3, crude extract 300 mg/kg, others 50 mg/kg): 158.4 g | Average body weight ([1]; 6th day (after administration on days 1-3), Table 3, crude extract 300 mg/kg, others 50 mg/kg): 164.4 g | Average body weight ([1]; 7th day (after administration on days 1-3), Table 3, crude extract 300 mg/kg, others 50 mg/kg): 166.8 g | body weight compared with the blank control group (in words) ([1]; crude extract 300 mg/kg): the tendency of body weight change was greatly different | Average body weight ([1]; −1st day (before administration), Table 3, crude extract 300 mg/kg, others 50 mg/kg): 163.6 g | Average body weight ([1]; −2nd day (before administration), Table 3, crude extract 300 mg/kg, others 50 mg/kg): 160.4 g | Average body weight ([1]; −3rd day (before administration), Table 3, crude extract 300 mg/kg, others 50 mg/kg): 158 g | Average body weight ([1]; −4th day (before administration), Table 3, crude extract 300 mg/kg, others 50 mg/kg): 156 g | Average body weight ([1]; −5th day (before administration), Table 3, crude extract 300 mg/kg, others 50 mg/kg): 154.4 g | Average body weight ([1]; −6th day (before administration), Table 3, crude extract 300 mg/kg, others 50 mg/kg): 152.8 g | Average body weight ([1]; −7th day (before administration), Table 3, crude extract 300 mg/kg, others 50 mg/kg): 150 g

CO[C@H]1C[C@H](O[C@H]2[C@@H](OC)C[C@H](O[C@H]3CC[C@@]4(C)C(=CC[C@]5(O)[C@@H]4C[C@@H](OC(=O)/C=C/c4ccccc4)[C@@]4(C)[C@]5(O)CC[C@@]4(O)C(C)=O)C3)O[C@@H]2C)O[C@@H](C)[C@H]1O[C@H]1C[C@H](OC)[C@H](O[C@H]2C[C@@H](OC)[C@@H](O)[C@H](C)O2)[C@@H](C)O1 [Wilfoside K1N, wilfoside K1N]
Average food consumptions (female Wistar rat; 1st day (administration day), Table 4, wilfosides 50 mg/kg): 2.8 g | Average food consumptions (female Wistar rat; 2nd day (administration day), Table 4, wilfosides 50 mg/kg): 6.4 g | Average food consumptions (female Wistar rat; 3rd day (administration day), Table 4, wilfosides 50 mg/kg): 2.8 g | Average food consumptions (female Wistar rat; 4th day (after administration on days 1-3), Table 4, wilfosides 50 mg/kg): 8.4 g | Average food consumptions (female Wistar rat; 5th day (after administration on days 1-3), Table 4, wilfosides 50 mg/kg): 9.2 g | Average food consumptions (female Wistar rat; 6th day (after administration on days 1-3), Table 4, wilfosides 50 mg/kg): 13.6 g | Average food consumptions (female Wistar rat; 7th day (after administration on days 1-3), Table 4, wilfosides 50 mg/kg): 14.8 g | average food consumptions compared with the blank control group (in words) (female Wistar rat; crude extract 300 mg/kg): greatly different from those in the blank group | Average food consumptions (female Wistar rat; −1st day (before administration), Table 4, wilfosides 50 mg/kg): 13.2 g | Average food consumptions (female Wistar rat; −2nd day (before administration), Table 4, wilfosides 50 mg/kg): 13.6 g | Average food consumptions (female Wistar rat; −3rd day (before administration), Table 4, wilfosides 50 mg/kg): 13.2 g | Average food consumptions (female Wistar rat; −4th day (before administration), Table 4, wilfosides 50 mg/kg): 14.4 g | Average food consumptions (female Wistar rat; −5th day (before administration), Table 4, wilfosides 50 mg/kg): 14.8 g | Average food consumptions (female Wistar rat; −6th day (before administration), Table 4, wilfosides 50 mg/kg): 10.8 g | Average food consumptions (female Wistar rat; −7th day (before administration), Table 4, wilfosides 50 mg/kg): 7.6 g | Average body weight ([1]; 1st day (administration day), Table 6, wilfosides 50 mg/kg): 136.4 g | Average body weight ([1]; 2nd day (administration day), Table 6, wilfosides 50 mg/kg): 134.4 g | Average body weight ([1]; 3rd day (administration day), Table 6, wilfosides 50 mg/kg): 130.4 g | Average body weight ([1]; 4th day (after administration on days 1-3), Table 6, wilfosides 50 mg/kg): 134.2 g | Average body weight ([1]; 5th day (after administration on days 1-3), Table 6, wilfosides 50 mg/kg): 136.8 g | Average body weight ([1]; 6th day (after administration on days 1-3), Table 6, wilfosides 50 mg/kg): 139.2 g | Average body weight ([1]; 7th day (after administration on days 1-3), Table 6, wilfosides 50 mg/kg): 144 g | body weight compared with the blank control group (in words) ([1]; crude extract 300 mg/kg): greatly different from those in the blank group | Average body weight ([1]; −1st day (before administration), Table 6, wilfosides 50 mg/kg): 148.8 g | Average body weight ([1]; −2nd day (before administration), Table 6, wilfosides 50 mg/kg): 146.4 g | Average body weight ([1]; −3rd day (before administration), Table 6, wilfosides 50 mg/kg): 143.6 g | Average body weight ([1]; −4th day (before administration), Table 6, wilfosides 50 mg/kg): 141.6 g | Average body weight ([1]; −5th day (before administration), Table 6, wilfosides 50 mg/kg): 140 g | Average body weight ([1]; −6th day (before administration), Table 6, wilfosides 50 mg/kg): 137.6 g | Average body weight ([1]; −7th day (before administration), Table 6, wilfosides 50 mg/kg): 134.8 g
